Literature values as cited in patent US20140256761A1, “ENHANCED ARTEMISININ-BASED COMBINATION THERAPY FOR TREATING PARASITIC MEDIATED DISEASE” (priority 2009, published 2014).

Columns and labels:
[1] = in water or oils
[2] = in vivo
[3] = generally considered

Structure (SMILES) | solubility [1] | also measured
C[C@@H]1CC[C@H]2[C@@H](C)C(=O)O[C@@H]3O[C@@]4(C)CC[C@@H]1[C@]32OO4 [artemisinin] | sparingly soluble | –
COc1cc(NC(C)CCCN)c2ncccc2c1 (centres unmarked) [Primaquine] | – | absorption from the gastro-intestinal tract [2]: readily absorbed
COc1ccc2cc3[n+](cc2c1OC)CCc1cc2c(cc1-3)OCO2 [Berberine, (5,6-Dihydro-9,10-dimethoxybenzo[g]-1,3-benzodioxolo[5,6-a]quinolizinium)] | – | toxicity [3]: non-toxic

Further lines, with some results ahead:

solubility [1] | Structure (SMILES) | also measured
water-soluble | C[C@H]1[C@H](OC(=O)CCC(=O)O)O[C@@H]2O[C@@]3(C)CC[C@H]4[C@H](C)CC[C@@H]1[C@@]24OO3 [artesunate, 3R,5aS,6R,8aS,9R,10S,12R,12aR)-Decahydro-3,6,9-trimethyl-3,12-epoxy-12H-pyrano(4,3-j)-1,2-benzodioxepin-10-ol hydrogen succinate] | –
lipid-soluble | CO[C@H]1O[C@@H]2O[C@@]3(C)CC[C@H]4[C@H](C)CC[C@@H]([C@H]1C)[C@@]24OO3 [artemether, (+)-(3-alpha,5a-beta,6-beta,8a-beta, 9-alpha,12-beta,12aR)-decahydro-10-methoxy-3,6,9-trimethyl-3,12-epoxy-12H-pyrano(4,3-j)-1,2-benzodioxepin] | –
